For eight molecules, TGI and GI50 results are on record in PubChem BioAssay (NCI).

Some test systems named below: 786-0 renal; A549 NSCLC; SNB-75 CNS; EKVX NSCLC; U251 CNS; HCC-2998 colon; COLO 205 colon; HCT-116 colon; NCI-H460 lung; SR leukemia.
What all share (experiment): NCI anticancer screen, dose series, 48 h

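Grown in 96-well plates, cells were treated for 48 hours with each compound at five concentrations. Insufficient inhibition: endpoint recorded as highest concentration tested. Abbreviation: GI50, concentration required for 50% inhibition of growth. Definition used: TGI = concentration required for complete inhibition of growth.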

Consider `CCCC[C@H](CCc1ccccc1)N(C(=O)OC)N1CCC[C@H]1COC`, for which the TGI is 45.2 µM in the assay with 786-0 renal; 67.1 µM with A549 NSCLC; 79.1 µM in the assay with SNB-75 CNS; 35.2 µM in the assay with EKVX NSCLC; 29.1 µM with U251 CNS; 28.1 µM with HCC-2998 colon. In addition, the TGI was 30.8 µM with COLO 205 colon, 28.2 µM in the assay with HCT-116 colon, 31.6 µM in the assay with NCI-H460 lung and over 100 µM in the assay with SR leukemia.

Regarding `C[N+]1(CCNP(=S)(NCC[N+]2(C)Cc3c(ccc4c3OCO4)C3C2c2cc4c(cc2C[C@@H]3O)OCO4)NCC[N+]2(C)Cc3c(ccc4c3OCO4)C3C2c2cc4c(cc2C[C@@H]3O)OCO4)Cc2c(ccc3c2OCO3)C2C1c1cc3c(cc1C[C@H]2O)OCO3` (stereo not given in full), the GI50 with 786-0 renal is 5.22 µM; in the assay with A549 NSCLC, 2.89 µM; in the assay on SNB-75 CNS it was 1.18 µM; in the assay with EKVX NSCLC it was 45.9 µM; in the assay on U251 CNS, 1.99 µM; with HCC-2998 colon, 5.22 µM. The GI50 is 1.65 µM in the assay on COLO 205 colon, 1.43 µM with HCT-116 colon, 0.976 µM in the assay with NCI-H460 lung and 1.75 µM in the assay on SR leukemia.

As to `C#Cc1cccc(Nc2nc(C)nc3cc(NC(=O)CCl)ccc23)c1`, the GI50 is 0.461 µM in the assay with 786-0 renal; 4.68 µM in the assay with A549 NSCLC; 1.09 µM with SNB-75 CNS; 3.13 µM in the assay with EKVX NSCLC; 0.641 µM in the assay with U251 CNS; 3.79 µM in the assay on HCC-2998 colon. The GI50 was 3.26 µM with COLO 205 colon, 0.654 µM in the assay on HCT-116 colon, 3.23 µM in the assay with NCI-H460 lung and 0.561 µM with SR leukemia. In addition, the TGI was 1.03 µM with 786-0 renal; 8.66 µM with A549 NSCLC; 4.34 µM in the assay on SNB-75 CNS; 7.62 µM with EKVX NSCLC; 1.7 µM with U251 CNS; 7.76 µM in the assay on HCC-2998 colon. Moreover, the TGI came out at 7.41 µM in the assay on COLO 205 colon, 2.66 µM in the assay on HCT-116 colon, 7.19 µM in the assay on NCI-H460 lung and 2.24 µM in the assay with SR leukemia.

On to `C=C[C@@H]1CCC/C=C/[C@@H]2C[C@H](O)C[C@H]2[C@H](O)/C=C/C(=O)O1`, for which the GI50 is 0.257 µM in the assay on 786-0 renal; 0.469 µM with A549 NSCLC; 0.397 µM with SNB-75 CNS; 0.543 µM with EKVX NSCLC; 0.941 µM in the assay with U251 CNS; 0.409 µM with HCC-2998 colon. The GI50 is 0.224 µM with COLO 205 colon, 0.866 µM in the assay on HCT-116 colon, 3.76 µM in the assay with NCI-H460 lung and 1.64 µM in the assay on SR leukemia. Also, the TGI with 786-0 renal was 0.606 µM; with A549 NSCLC, over 100 µM; in the assay on SNB-75 CNS it was over 100 µM; in the assay with EKVX NSCLC it was over 100 µM; in the assay on U251 CNS, over 100 µM; in the assay on HCC-2998 colon, 2.92 µM. The TGI was 0.441 µM in the assay on COLO 205 colon, 2.49 µM with HCT-116 colon, over 100 µM in the assay on NCI-H460 lung and over 28 µM with SR leukemia.

In the case of `CCCCNC(=O)Oc1ccc(/C(=C(\C)c2ccc(OC)cc2)c2ccc(OCCN3CCCCC3)cc2)cc1`, the GI50 with 786-0 renal is 1.47 µM; in the assay on A549 NSCLC it was 4.15 µM; with SNB-75 CNS, 6.91 µM; in the assay on EKVX NSCLC it was 5.18 µM; in the assay with U251 CNS it was 2.49 µM; in the assay on HCC-2998 colon, 3.31 µM. In addition, the GI50 in the assay on COLO 205 colon is 2.07 µM; in the assay on HCT-116 colon it was 1.15 µM; with NCI-H460 lung it was 1.94 µM; in the assay on SR leukemia, 1.59 µM. Besides, the TGI with 786-0 renal turned out to be 2.83 µM; in the assay with A549 NSCLC, 16 µM; with SNB-75 CNS, 25 µM; with EKVX NSCLC, 22.9 µM; in the assay on U251 CNS, 5.99 µM; with HCC-2998 colon, 11.5 µM. The TGI in the assay with COLO 205 colon amounted to 4.63 µM; with HCT-116 colon it was 2.38 µM; with NCI-H460 lung, 3.86 µM; in the assay with SR leukemia, 4.63 µM.

In the case of `O=c1cc(-c2ccccc2)oc2c(O)c(O)ccc12`, the GI50 is 5.99 µM in the assay with 786-0 renal; 7.22 µM in the assay with A549 NSCLC; 28.7 µM in the assay with SNB-75 CNS; 18.4 µM in the assay on EKVX NSCLC; 7.72 µM in the assay with U251 CNS; 23.8 µM with HCC-2998 colon. The GI50 with COLO 205 colon was 18.3 µM; in the assay on HCT-116 colon, 4.01 µM; in the assay on NCI-H460 lung, 4.44 µM; in the assay on SR leukemia, 3.35 µM. Further, the TGI in the assay with 786-0 renal was 75.1 µM; in the assay with A549 NSCLC, 91.5 µM; with SNB-75 CNS it was over 100 µM; with EKVX NSCLC, over 100 µM; in the assay with U251 CNS, over 100 µM; with HCC-2998 colon, over 100 µM. The TGI was 53.9 µM in the assay on COLO 205 colon, over 100 µM in the assay on HCT-116 colon, over 100 µM in the assay on NCI-H460 lung and over 100 µM with SR leukemia.

Take `O=C1/C(=C/c2ccc(Cl)cc2)N=C(c2ccccc2)N1c1cc(C(F)(F)F)ccc1Cl`: the GI50 was 14.4 µM in the assay with 786-0 renal; 24.2 µM in the assay on A549 NSCLC; 18.6 µM with SNB-75 CNS; 21.9 µM in the assay on EKVX NSCLC; 22.5 µM in the assay with U251 CNS; 27.5 µM in the assay with HCC-2998 colon. Moreover, the GI50 is 17.5 µM with COLO 205 colon, 16.8 µM with HCT-116 colon, 19.4 µM in the assay on NCI-H460 lung and 28.7 µM in the assay with SR leukemia. In addition, the TGI with 786-0 renal was 50.6 µM; in the assay on A549 NSCLC it was over 100 µM; in the assay on SNB-75 CNS it was 78.7 µM; in the assay with EKVX NSCLC it was over 100 µM; with U251 CNS, over 100 µM; in the assay with HCC-2998 colon it was 87 µM. In addition, the TGI amounted to 40.7 µM in the assay on COLO 205 colon, 48.3 µM with HCT-116 colon, 61.7 µM in the assay on NCI-H460 lung and 68 µM in the assay on SR leukemia.

Take `COc1ccc(-c2oc3ncnc(N)c3c2-c2ccc(NC(=O)Nc3cc(C(F)(F)F)ccc3F)cc2)cc1`: the GI50 with 786-0 renal was 1.45 µM; with A549 NSCLC, 0.762 µM; with SNB-75 CNS it was 1.51 µM; in the assay with EKVX NSCLC, 1.59 µM; with U251 CNS, 0.997 µM; with HCC-2998 colon it was 2.08 µM. For the same molecule, the GI50 in the assay with COLO 205 colon was 0.558 µM; in the assay on HCT-116 colon, 0.883 µM; in the assay with NCI-H460 lung it was 0.85 µM; in the assay on SR leukemia it was 0.833 µM. For the same molecule, the TGI with 786-0 renal was determined as 5.49 µM; with A549 NSCLC, 3.43 µM; with SNB-75 CNS it was 4.35 µM; with EKVX NSCLC, 9.74 µM; in the assay on U251 CNS, 3.83 µM; in the assay with HCC-2998 colon it was 5.81 µM. Further, the TGI was determined as 1.45 µM in the assay with COLO 205 colon, 2.84 µM in the assay with HCT-116 colon, 2.97 µM in the assay on NCI-H460 lung and 8.61 µM with SR leukemia.
